For data set [1] the following is noted: cited from earlier work.
The nature of data set [2]: storage stability (potency / % remaining after storage). Format: physicochemical.

We go through two compounds from patent publication EP0548834B1, “Stable hexahydrate of etoposide 4'-phosphate disodium salt” (Bristol-Myers Squibb Company, priority 1991, dated 1993).

For the compound `COc1cc([C@@H]2c3cc4c(cc3[C@@H](O[C@@H]3O[C@@H]5CO[C@@H](C)O[C@H]5[C@H](O)[C@H]3O)[C@H]3COC(=O)[C@H]23)OCO4)cc(OC)c1O` [etoposide, Etoposide], the solubility in water entry in data set [1] is given as “about 0.1 mg/ml”.

Consider `COc1cc(C2c3cc4c(cc3C(OC3OC5COC(C)OC5C(O)C3O)C3COC(=O)C23)OCO4)cc(OC)c1OP(=O)([O-])[O-].O.O.O.O.O.O.[Na+].[Na+]` (centres unmarked) [hexahydrate, Etoposide 4'-Phosphate Disodium salt hexahydrate], for which the “% Remaining” value in data set [2] (9 weeks at 50°C, in sealed glass vials) is recorded as 99.4%; in data set [2] (28 days at 80% Relative Humidity, 37°C) it was 100.0%. The potency remaining in data set [2] (28 days at 37°C) is 100%. Besides, the potency in data set [2] (storage for 63 days at 30°C) was over 99%.
